The record followed here is patent US11866450B2, “Modulators of Cystic Fibrosis Transmembrane Conductance regulator, pharmaceutical compositions, methods of treatment, and process for making the modulators” (priority 2018, dated 2024).

Data set [1] has as its target CFTR-mediated chloride transport (Homo sapiens, UniProt P13569). Type of data set: cell-based. The settings on record: enteroid cells incubated with test compound 18-24 hours, acute 10 μM forskolin and 300 nM Compound III; for Max. Activity: % of chloride transport with 3 μM Compound A, 3 μM Compound II and 300 nM acute Compound III triple combination control. The gist of the method:
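Membrane-potential fluorescence AUC over 15 min quantified CFTR chloride transport after acute forskolin (10 μM), IBMX (100 μM) and Compound III (300 nM) in chloride-free buffer. Human enteroid cells were pretreated with compound for 18–24 h; % Activity is relative to 3 μM Compound A + 3 μM Compound II + 300 nM Compound III.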

The conditions of data set [2]: snar bond, 15-membered ring.

Each structure is given as a SMILES string. Where two headings read alike, the source gives them in different places.

Sequence of CFTR-mediated chloride transport (P13569 whole entry, looked up): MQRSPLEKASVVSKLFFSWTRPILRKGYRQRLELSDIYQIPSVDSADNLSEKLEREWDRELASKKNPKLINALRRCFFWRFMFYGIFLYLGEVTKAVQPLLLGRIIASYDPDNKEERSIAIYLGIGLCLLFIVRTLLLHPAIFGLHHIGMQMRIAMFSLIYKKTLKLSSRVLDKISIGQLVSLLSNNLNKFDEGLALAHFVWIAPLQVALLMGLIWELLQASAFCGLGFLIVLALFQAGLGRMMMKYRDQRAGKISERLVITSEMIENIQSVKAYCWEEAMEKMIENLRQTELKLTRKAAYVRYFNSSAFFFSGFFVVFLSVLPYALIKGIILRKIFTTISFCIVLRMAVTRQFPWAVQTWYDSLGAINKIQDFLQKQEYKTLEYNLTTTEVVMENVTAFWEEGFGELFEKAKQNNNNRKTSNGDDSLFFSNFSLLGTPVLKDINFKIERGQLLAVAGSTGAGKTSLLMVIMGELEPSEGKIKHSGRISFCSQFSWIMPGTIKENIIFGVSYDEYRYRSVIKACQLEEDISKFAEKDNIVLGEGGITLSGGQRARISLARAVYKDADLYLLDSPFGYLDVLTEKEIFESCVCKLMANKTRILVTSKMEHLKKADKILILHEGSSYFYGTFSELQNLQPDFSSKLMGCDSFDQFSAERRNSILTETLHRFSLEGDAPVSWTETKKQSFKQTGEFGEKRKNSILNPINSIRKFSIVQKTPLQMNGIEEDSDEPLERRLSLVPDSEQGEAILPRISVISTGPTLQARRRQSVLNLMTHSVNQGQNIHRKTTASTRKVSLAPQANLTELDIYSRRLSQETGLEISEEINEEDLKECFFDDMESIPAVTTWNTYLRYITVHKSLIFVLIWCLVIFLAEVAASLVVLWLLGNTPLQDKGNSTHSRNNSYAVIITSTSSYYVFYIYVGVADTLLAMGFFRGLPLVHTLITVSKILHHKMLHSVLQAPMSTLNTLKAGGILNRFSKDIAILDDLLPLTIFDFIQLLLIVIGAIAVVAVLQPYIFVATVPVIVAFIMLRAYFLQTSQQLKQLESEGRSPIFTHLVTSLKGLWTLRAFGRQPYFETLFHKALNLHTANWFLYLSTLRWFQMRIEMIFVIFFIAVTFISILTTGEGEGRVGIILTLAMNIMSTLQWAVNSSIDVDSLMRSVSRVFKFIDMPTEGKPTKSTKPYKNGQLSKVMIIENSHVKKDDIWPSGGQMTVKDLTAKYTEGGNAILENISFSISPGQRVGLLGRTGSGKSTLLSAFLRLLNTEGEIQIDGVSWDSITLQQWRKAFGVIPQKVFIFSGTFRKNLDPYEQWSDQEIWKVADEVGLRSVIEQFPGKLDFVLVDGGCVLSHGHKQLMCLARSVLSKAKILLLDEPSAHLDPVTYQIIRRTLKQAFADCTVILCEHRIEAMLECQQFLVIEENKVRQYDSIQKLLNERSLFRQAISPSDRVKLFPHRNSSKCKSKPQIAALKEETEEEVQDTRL

Broadly, the EC50 is the concentration needed to bring the measured effect to its halfway point. Consider `[2H]C([2H])([2H])C1(C([2H])([2H])[2H])C[C@@H]2CCCNc3cccc(n3)S(=O)(=O)NC(=O)c3ccc(-n4ccc(OCCC5C6(CC6)C56CC6)n4)nc3N1C2` [Compound 274, (14S)-8-[3-(2-{Dispiro[2.0.2.1]heptan-7-yl}ethoxy)-1H-pyrazol-1-yl]-12,12-di(trideuterio)methyl-2λ^6-thia-3,9,11,18,23-pentaazatetracyclo[17.3.1.111,14.05,10]tetracosa-1(23),5,7,9,19,21-hexaene-2,2,4-trione], for which, in data set [1], the EC50 is under 1000 nM and the “Max. Activity” value is reported as “+++ (+++ is >60%)”. In addition, the ring closure, isolated yield in data set [2] (from [2H]C([2H])([2H])C1(C([2H])([2H])[2H])C[C@H](CCCNc2cccc(S(=O)(=O)NC(=O)c3ccc(-n4ccc(OCCC5C6(CC6)C56CC6)n4)nc3Cl)n2)CN1, K2CO3, NMP, 53.5 mM, 150.0 °C) amounted to 47%.

For the molecule `[2H]C([2H])(COc1ccn(-c2ccc3c(n2)N2C[C@@H](CCCNc4cccc(n4)S(=O)(=O)NC3=O)CC2(C)C)n1)C([2H])([2H])C1(C(F)(F)F)CC1` [Compound 287, (14S)-12,12-dimethyl-8-(3-{3-[1-(trifluoromethyl)cyclopropyl]-2,2,3,3-tetradeuterio-propoxy}-1H-pyrazol-1-yl)-2λ^6-thia-3,9,11,18,23-pentaazatetracyclo[17.3.1.111,14.05,10]tetracosa-1(22),5,7,9,19(23),20-hexaene-2,2,4-trione], in data set [1], the concentration giving a half-maximal response (EC50) was under 1000 nM and the “Max. Activity” value is “++ (++ is 30-60%)”. The ring closure, isolated yield in data set [2] (from [2H]C([2H])(COc1ccn(-c2ccc(C(=O)NS(=O)(=O)c3cccc(NCCC[C@@H]4CNC(C)(C)C4)n3)c(Cl)n2)n1)C([2H])([2H])C1(C(F)(F)F)CC1, K2CO3, NMP, 20.8 mM, 155.0 °C, 18.0 h) is 73%.

For `[2H]C([2H])([2H])C1(C([2H])([2H])[2H])C[C@@H]2CCCNc3cccc(n3)S(=O)(=O)NC(=O)c3ccc(-n4ccc(OCCCC5(C(F)(F)F)CC5)n4)nc3N1C2` [Compound 292, (14S)-12,12-di(trideuterio)methyl-8-(3-{3-[1-(trifluoromethyl)cyclopropyl]propoxy}-1H-pyrazol-1-yl)-2λ^6-thia-3,9,11,18,23-pentaazatetracyclo[17.3.1.111,14.05,10]tetracosa-1(22),5,7,9,19(23),20-hexaene-2,2,4-trione], in data set [1], the EC50 was under 1000 nM and the “Max. Activity” value was “+++ (+++ is >60%)”. The ring closure, isolated yield in data set [2] (from [2H]C([2H])([2H])C1(C([2H])([2H])[2H])C[C@H](CCCNc2cccc(S(=O)(=O)NC(=O)c3ccc(-n4ccc(OCCCC5(C(F)(F)F)CC5)n4)nc3Cl)n2)CN1, K2CO3, NMP, 41.5 mM, 135.0 °C, 22.0 h) worked out at 27%.

Regarding `CC1(C)C[C@@H]2CCCNc3cccc(n3)S(=O)(=O)NC(=O)c3ccc(-n4ccc(OCCC(O)C5(C(F)(F)F)CC5)n4)nc3N1C2` (stereo partly drawn) [Compound 295, (14S)-8-(3-{3-hydroxy-3-[1-(trifluoromethyl)cyclopropyl]propoxy}-1H-pyrazol-1-yl)-12,12-dimethyl-2λ^6-thia-3,9,11,18,23-pentaazatetracyclo[17.3.1.111,14.05,10]tetracosa-1(22),5,7,9,19(23),20-hexaene-2,2,4-trione], in data set [1], the EC50 was under 1000 nM and the “Max. Activity” value was “++ (++ is 30-60%)”. Also, the ring closure, isolated yield in data set [2] (from CC(C)(C)OC(=O)N1C[C@@H](CCCNc2cccc(S(=O)(=O)NC(=O)c3ccc(-n4ccc(OCCC(O[Si](C)(C)C(C)(C)C)C5(C(F)(F)F)CC5)n4)nc3Cl)n2)CC1(C)C, K2CO3/CsF/3A MS, DMSO, 41.7 mM, 150.0 °C, 2 steps) was found to be 46%.
